For experiment [1], the target named is Human MET (residues 956-1390) (Homo sapiens (Human), UniProt P08581). In words: Human Met kinase assay, HTRF KinEase (Example D-2). In kind it is biochemical. The settings on record: read-out: c-Met IC50. A digest of the protocol:
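HTRF KinEase assay on MET residues 956-1390 (0.1 ng/well) in buffer with 5 mM MgCl2, 1 mM DTT and 1 mM MnCl2, with biotinylated peptide substrate, ATP at Km, 10 compound concentrations and 3% DMSO final, run 40 min at room temperature. The […] signal was normalized to DMSO and to 1 μM reference compound, and IC50 came from a 4-parameter logistic fit.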
A general note: In TR-FRET formats the signal depends on donor and acceptor labels being close together.

For experiment [2], the target named is KDR (phospho-KDR, VEGF165-stimulated HUVEC cells) (Homo sapiens (Human), UniProt P35968). In words: KDR autophosphorylation ELISA in HUVEC cells (Example G). Type of experiment: cell-based. The settings on record: cellular activity; KDR autophosphorylation ELISA in HUVEC cells. In outline:
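HUVEC cells, serum-starved 24 h, were treated 1 h with an 8-point compound dilution (0.3% DMSO) and then stimulated with 100 ng/mL VEGF165 for 5 min. Phospho-KDR in lysates was quantified by sandwich ELISA against a phospho-KDR standard. IC50 from a 4-parameter logistic fit, normalised between stimulated DMSO and unstimulated controls.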

The mark [3] stands for this setting: protocol of Example D-2 (other compounds).

This note sets out measurements from US12371428B2 (Exelixis, Inc., priority 2019, dated 2025).

Like-named read-outs stand apart in the source and are kept apart here.

Chain of Human MET (residues 956-1390) (P08581 956-1390): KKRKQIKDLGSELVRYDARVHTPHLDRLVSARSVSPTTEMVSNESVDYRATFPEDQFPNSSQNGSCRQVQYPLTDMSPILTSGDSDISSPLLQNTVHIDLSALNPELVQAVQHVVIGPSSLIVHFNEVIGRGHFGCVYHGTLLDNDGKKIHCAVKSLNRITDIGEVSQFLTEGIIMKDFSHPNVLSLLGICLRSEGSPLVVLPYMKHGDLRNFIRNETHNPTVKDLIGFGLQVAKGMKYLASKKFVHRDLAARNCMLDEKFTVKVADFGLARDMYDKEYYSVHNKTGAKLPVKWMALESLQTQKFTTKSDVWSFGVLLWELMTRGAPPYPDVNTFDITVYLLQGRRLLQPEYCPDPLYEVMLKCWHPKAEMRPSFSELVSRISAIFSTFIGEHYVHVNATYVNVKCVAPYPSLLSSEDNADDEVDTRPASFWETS
Chain of KDR (phospho-KDR, VEGF165-stimulated HUVEC cells) (P35968 20-1356): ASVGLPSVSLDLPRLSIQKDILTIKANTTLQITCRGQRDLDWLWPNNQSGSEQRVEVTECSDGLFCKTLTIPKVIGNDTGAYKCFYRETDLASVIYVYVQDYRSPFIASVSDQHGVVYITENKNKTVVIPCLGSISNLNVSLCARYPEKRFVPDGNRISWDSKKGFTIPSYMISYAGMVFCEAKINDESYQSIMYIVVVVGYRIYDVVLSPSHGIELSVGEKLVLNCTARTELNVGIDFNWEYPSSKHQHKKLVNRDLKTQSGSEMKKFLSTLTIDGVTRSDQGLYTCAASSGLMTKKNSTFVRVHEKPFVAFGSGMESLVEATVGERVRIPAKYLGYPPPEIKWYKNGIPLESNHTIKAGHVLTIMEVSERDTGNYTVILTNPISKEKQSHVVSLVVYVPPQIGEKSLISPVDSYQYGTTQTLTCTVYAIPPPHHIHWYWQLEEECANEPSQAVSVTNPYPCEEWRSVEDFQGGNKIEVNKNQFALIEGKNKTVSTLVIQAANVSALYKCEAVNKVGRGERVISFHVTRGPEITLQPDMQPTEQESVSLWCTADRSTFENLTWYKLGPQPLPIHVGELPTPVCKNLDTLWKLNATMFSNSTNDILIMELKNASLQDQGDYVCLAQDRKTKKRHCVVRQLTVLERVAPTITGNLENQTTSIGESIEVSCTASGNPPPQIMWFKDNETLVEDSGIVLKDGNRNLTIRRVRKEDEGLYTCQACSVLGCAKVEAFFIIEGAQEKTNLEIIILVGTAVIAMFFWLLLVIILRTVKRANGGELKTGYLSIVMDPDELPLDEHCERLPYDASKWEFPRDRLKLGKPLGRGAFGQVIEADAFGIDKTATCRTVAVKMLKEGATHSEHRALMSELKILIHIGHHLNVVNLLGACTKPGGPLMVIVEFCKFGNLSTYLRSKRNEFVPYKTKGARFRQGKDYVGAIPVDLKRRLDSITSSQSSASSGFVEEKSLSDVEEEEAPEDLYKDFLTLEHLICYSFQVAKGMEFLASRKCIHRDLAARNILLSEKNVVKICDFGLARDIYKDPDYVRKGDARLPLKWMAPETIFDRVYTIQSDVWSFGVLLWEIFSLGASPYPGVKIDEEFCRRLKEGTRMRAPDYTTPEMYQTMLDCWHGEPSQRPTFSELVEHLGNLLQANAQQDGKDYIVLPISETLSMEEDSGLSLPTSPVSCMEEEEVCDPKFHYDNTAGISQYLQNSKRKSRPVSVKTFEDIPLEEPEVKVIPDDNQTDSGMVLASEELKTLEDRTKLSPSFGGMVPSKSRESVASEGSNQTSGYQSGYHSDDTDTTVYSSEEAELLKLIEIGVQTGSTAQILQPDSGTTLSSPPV

Broadly, the IC50 is the concentration needed to halve the response being measured. Take `COc1cc2nccc(Oc3ccc(NC(=O)c4c(C)nc(C)c(-c5ccc(F)cc5)c4O)cc3F)c2nc1OC` [Compound 154, N-[4-[(6,7-Dimethoxy-1,5-naphthyridin-4-yl)oxy]-3-fluorophenyl]-5-(4-fluorophenyl)-4-hydroxy-2,6-dimethylpyridine-3-carboxamide]: the IC50 in experiment [1] (setting [3]) and in experiment [2] was < 100 nM each time.
Take `COc1cnc2c(Oc3ccc(NC(=O)c4cn(C)c(C)c(-c5ccc(F)cc5C)c4=O)cc3)ccnc2c1` [Compound 187, 5-(4-Fluoro-2-methylphenyl)-N-[4-[(7-methoxy-1,5-naphthyridin-4-yl)oxy]phenyl]-1,6-dimethyl-4-oxopyridine-3-carboxamide]: the IC50 was < 100 nM in experiment [1] (setting [3]) and > 300 nM in experiment [2].
The matching figures for `COc1cc2nccc(Oc3ccc(NC(=O)c4ccc(C)n(-c5ccc(F)cc5)c4=O)cc3F)c2nc1OC` [Compound 254, N-[4-[(6,7-Dimethoxy-1,5-naphthyridin-4-yl)oxy]-3-fluorophenyl]-1-(4-fluorophenyl)-6-methyl-2-oxopyridine-3-carboxamide]: < 100 nM and < 100 nM.
Consider `COc1cc2nccc(Oc3ccc(NC(=O)c4cn(CC(F)(F)F)c(C)c(-c5ccc(F)cc5)c4=O)cc3)c2cc1OC` [Compound 260, N-[4-(6,7-Dimethoxyquinolin-4-yl)oxyphenyl]-5-(4-fluorophenyl)-6-methyl-4-oxo-1-(2,2,2-trifluoroethyl)pyridine-3-carboxamide], for which the half-inhibitory concentration (IC50) in experiment [1] (setting [3]) is < 100 nM; in experiment [2], > 300 nM.
On the same counts, the results for `COCCOc1ccc2nccc(Oc3ccc(NC(=O)c4cnc(C)c(-c5ccc(F)cc5)c4O)cc3F)c2n1` [Compound 348, N-[3-fluoro-4-[[6-(2-methoxyethoxy)-1,5-naphthyridin-4-yl]oxy]phenyl]-5-(4-fluorophenyl)-4-hydroxy-6-methylpyridine-3-carboxamide] are < 100 nM and < 100 nM.
Consider `COCCOc1ccc2nccc(Oc3ccc(NC(=O)c4c(C)nc(C)c(-c5ccc(F)cc5)c4O)cc3F)c2n1` [Compound 349, N-[3-fluoro-4-[[6-(2-methoxyethoxy)-1,5-naphthyridin-4-yl]oxy]phenyl]-5-(4-fluorophenyl)-4-hydroxy-2,6-dimethylpyridine-3-carboxamide], for which the IC50 in experiment [1] (setting [3]) and in experiment [2] was < 100 nM throughout.
In the case of `COc1cc2ncnc(Oc3ccc(NC(=O)c4c5n(cc(-c6ccc(F)cc6)c4=O)CCC5)cc3F)c2cc1OC` [Compound 406, N-[4-(6,7-dimethoxyquinazolin-4-yl)oxy-3-fluorophenyl]-6-(4-fluorophenyl)-7-oxo-2,3-dihydro-1H-indolizine-8-carboxamide], the IC50 in experiment [1] (setting [3]) and in experiment [2] was < 100 nM each time.
On to `C=C(C)c1cnc2c(Oc3ccc(NC(=O)c4cnc(C)c(-c5ccc(F)cc5C)c4O)cc3)ccnc2c1` [Compound 448, 5-(4-fluoro-2-methylphenyl)-4-hydroxy-6-methyl-N-[4-[(7-prop-1-en-2-yl-1,5-naphthyridin-4-yl)oxy]phenyl]pyridine-3-carboxamide], for which the IC50 in experiment [1] (protocol of Example D-2) and in experiment [2] was < 100 nM each time.
Regarding `C=C(C)c1cnc2c(Oc3ccc(NC(=O)c4cnc(C)c(-c5ccc(F)cc5C)c4O)cc3F)ccnc2c1` [Compound 450, 5-(4-fluoro-2-methylphenyl)-N-[3-fluoro-4-[(7-prop-1-en-2-yl-1,5-naphthyridin-4-yl)oxy]phenyl]-4-hydroxy-6-methylpyridine-3-carboxamide], the IC50 in experiment [1] (protocol of Example D-2) and in experiment [2] was < 100 nM each time.
As for `C=C(C)c1cnc2c(Oc3ccc(NC(=O)c4c(C)nc(C)c(-c5ccc(F)cc5)c4O)cc3F)ccnc2c1` [Compound 451, 5-(4-fluorophenyl)-N-[3-fluoro-4-[(7-prop-1-en-2-yl-1,5-naphthyridin-4-yl)oxy]phenyl]-4-hydroxy-2,6-dimethylpyridine-3-carboxamide], the IC50 in experiment [1] (protocol of Example D-2) and in experiment [2] was < 100 nM in each case.
Regarding `C=C(C)c1cnc2c(Oc3ccc(NC(=O)c4cnc(C)c(-c5ccc(F)cc5)c4O)cc3)ccnc2c1` [Compound 454, 5-(4-fluorophenyl)-4-hydroxy-6-methyl-N-[4-[(7-prop-1-en-2-yl-1,5-naphthyridin-4-yl)oxy]phenyl]pyridine-3-carboxamide], the IC50 in experiment [1] (protocol of Example D-2) and in experiment [2] was < 100 nM in each case.
Consider `C=C(C)c1cnc2c(Oc3ccc(NC(=O)c4c(C)nc(C)c(-c5ccc(F)cc5)c4O)cc3)ccnc2c1` [Compound 455, 5-(4-fluorophenyl)-4-hydroxy-2,6-dimethyl-N-[4-[(7-prop-1-en-2-yl-1,5-naphthyridin-4-yl)oxy]phenyl]pyridine-3-carboxamide], for which the half-maximal inhibitory concentration (IC50) in experiment [1] (protocol of Example D-2) and in experiment [2] was < 100 nM throughout.
On to `C=C(C)c1cnc2c(Oc3ccc(NC(=O)c4cnc(C)c(-c5ccc(F)cc5)c4O)cc3F)ccnc2c1` [Compound 456, 5-(4-fluorophenyl)-N-[3-fluoro-4-[(7-prop-1-en-2-yl-1,5-naphthyridin-4-yl)oxy]phenyl]-4-hydroxy-6-methylpyridine-3-carboxamide], for which the IC50 in experiment [1] (protocol of Example D-2) and in experiment [2] was < 100 nM throughout.
With `C=C(C)c1cnc2c(Oc3ccc(NC(=O)c4c(C)cc(C)n(-c5ccc(F)cc5)c4=O)cc3F)ccnc2c1` [Compound 457, 1-(4-fluorophenyl)-N-[3-fluoro-4-[(7-prop-1-en-2-yl-1,5-naphthyridin-4-yl)oxy]phenyl]-4,6-dimethyl-2-oxopyridine-3-carboxamide], the IC50 in experiment [1] (protocol of Example D-2) and in experiment [2] was < 100 nM throughout.
As for `COc1nc2c(Oc3ccc(NC(=O)c4cnc(C)c(-c5ccc(F)cc5)c4O)cc3F)ccnc2cc1C` [Compound 458, N-[3-fluoro-4-[(6-methoxy-7-methyl-1,5-naphthyridin-4-yl)oxy]phenyl]-5-(4-fluorophenyl)-4-hydroxy-6-methylpyridine-3-carboxamide], the results for the IC50 in experiment [1] (protocol of Example D-2) and in experiment [2] were 100 to 300 nM and < 100 nM, respectively.
On the same counts, the results for `COc1nc2c(Oc3ccc(NC(=O)c4c(C)nc(C)c(-c5ccc(F)cc5)c4O)cc3F)ccnc2cc1C` [Compound 459, N-[3-fluoro-4-[(6-methoxy-7-methyl-1,5-naphthyridin-4-yl)oxy]phenyl]-5-(4-fluorophenyl)-4-hydroxy-2,6-dimethylpyridine-3-carboxamide] are 100 to 300 nM and < 100 nM.
On the same counts, the results for `COc1nc2c(Oc3ccc(NC(=O)c4cnc(C)c(-c5ccc(F)cc5C)c4O)cc3F)ccnc2cc1C` [Compound 460, N-[3-fluoro-4-[(6-methoxy-7-methyl-1,5-naphthyridin-4-yl)oxy]phenyl]-5-(4-fluoro-2-methylphenyl)-4-hydroxy-6-methylpyridine-3-carboxamide] are 100 to 300 nM and < 100 nM.
For the molecule `COc1cc2nccc(Oc3ccc(NC(=O)c4c(C)ncc(-c5ccc(F)cc5C)c4O)cc3F)c2nc1OC` [Compound 479, N-[4-[(6,7-dimethoxy-1,5-naphthyridin-4-yl)oxy]-3-fluorophenyl]-5-(4-fluoro-2-methylphenyl)-4-hydroxy-2-methylpyridine-3-carboxamide], the IC50 in experiment [1] (protocol of Example D-2) and in experiment [2] was < 100 nM throughout.
